Measured values reported in patent US9127008B2, “Morphine sulfate methanolic solvate, processes for making same and related compositions and methods for treating pain” (Johnson Matthey Public Limited Company, priority 2013, dated 2015).
Where two headings read alike, the source gives them in different places.

Assays:
[1] = 2 months under air at room temperature
[2] = Storage of morphine sulfate in moisturizing chamber (moist room temperature air), ABUK/water/ethanol analysis; format: physicochemical; settings: after several days in moisturizing chamber

Structure (SMILES) | methanol content after storage [1] | water content after storage [1] | ABUK level after storage ([1]; morphine base had 5 ppm ABUK at start) | ABUK level after storage ([2]; constant flow of moist room temperature air, 17 ppm ABUK before) | ethanol content after storage ([2]; 0.95% before (gas chromatography)) | water content after storage ([2]; 5.25% before (Karl Fischer))
CN1CC[C@]23c4c5ccc(O)c4O[C@H]2[C@@H](O)C=C[C@H]3[C@H]1C5 [morphine base, morphine] | 0.08 % by weight | 5.70 % by weight | 117 ppm |  |  | 
CN1CC[C@]23c4c5ccc(O)c4O[C@H]2[C@@H](O)C=C[C@H]3[C@H]1C5.O=S(=O)(O)O [morphine sulfate] |  |  |  | 123 ppm | 0.11% | 9.8%
